Data on 3 molecules can be found in US20250360233A1, “Central Neurodegeneration Imaging Agent and Method of Preparing the Same” (National Atomic Research Institute, priority 2024, published 2025).

Data set [1] is described as follows: F-18-α-syn3 serum stability. In kind it is in vitro ADME. The note with it: serum at 37° C., after a hour. Here is the method:
Moreover, the present invention discloses giving considerations to the F-18-α-syn3 formula and serum stability and thus conducting F-18-α-syn3 formula research to attain a recycling rate as high as 90.1%. Regarding a test of F-18-α-syn3 serum stability, medications are placed within serum at 37° C., achieving radioactive chemical purity of 91.5% even after a hour.

In data set [2] the test system is mouse brains (PD brain lesions). In words: PET brain imaging of Rotenone-induced Parkinson's disease mice versus Sham. It is filed as in vivo. Conditions: for F-18 images of PD brains compared with the control group (Sham): Rotenone tube feeding 12 weeks. From the text:
Regarding its application, the present invention entails feeding Rotenone to mice by tube feeding continuously for 12 weeks to induce the mouse brains to manifest Parkinson's disease (PD) symptom animal mode for function as the experimental group, treating mice with placebo to serve as the control group (Sham) without manifesting any PD lesions, performing imaging of the mouse brains with an F-18-FE-PE21, F-18-FDOPA and F-18-α-syn3 respectively, displaying the longitudinal-section and cross-section images of the mouse brains, and comparing the intake of the F-18 imaging agent into the mouse brains.

The nature of data set [3]: parallel artificial membrane permeation assay (PAMPA) simulating the blood-brain barrier. In kind it is in vitro ADME. The source says: (§1) Therefore, the present invention not only effectively reduces the logP value but also passes a test of affinity, specificity, and parallel artificial membrane.
A short description of data set [4]: logP analysis of the F-18-α-syn3. In kind it is physicochemical. From the text: The experimental results of the logP analysis of the F-18-α-syn3 of the present invention are as follows:
The above data is about testing the logP of the F-18-α-syn3 labeling finished product solution repeatedly. The result confirms that all the logP values range from 2 to 3.

Data set [5] addresses α-synuclein (Homo sapiens, UniProt P37840). Nature of the data set: test tube competition test, α-synuclein. The note with it: read-out: IC50 (50% binding inhibition).
Excerpt: as §1

Data set [6] deals with amyloid-β(Aβ) (Homo sapiens, UniProt P05067). Nature of the data set: affinity comparison, amyloid-β. Conditions: read-out: amyloid-β(Aβ) value compared with the α-synuclein IC50. It is filed as binding.
amyloid-β(Aβ), sequence (P05067 672-713 limits assumed): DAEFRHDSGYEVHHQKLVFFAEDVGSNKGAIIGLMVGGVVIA
Excerpt: as §1

Setting [7] is: Rotenone PD mice versus Sham, PET.

Read-outs that look alike come from different tables or passages of the source.

`O=C1/C(=C\C=C\c2ccc([N+](=O)[O-])cc2)c2ccccc2N1CCOCCF` [F-18-α-syn3, (Z)-1-(2-(2-fluoroethoxy)ethyl)-3-((E)-3-(4-nitrophenyl)allylidene) indolin-2-one]: the “radioactive chemical purity in serum” value in data set [1] is 91.5%. For the same molecule, the background absorption level result in data set [2] (setting [7]) is listed as “obviously lower”. Moreover, the “F-18 images of PD brains compared with the control group (Sham)” value in data set [2] (mice, PET) is recorded as “clearer F-18 images”. The “passage through the blood-brain barrier (BBB) into mouse brains” value in data set [2] (mice) was “can pass through the blood-brain barrier”. In addition, the “concentration that ensures the satisfaction of PAMPA” value in data set [3] is “at least 6 nM”. This molecule showed a PAMPA pass rate in data set [3] (concentration of 60 nM) of 56.25%. Moreover, the logP in data set [4] (50 uCi, read-out: logP) is 2.63; in data set [4] (end solution, 22 uCi, read-out: logP) it was 2.41; in data set [4] (end solution, 50 uCi, read-out: logP), 2.07; in data set [4] (labeling finished product solution tested repeatedly, read-out: logP, range of all repeated tests) it was 2 to 3. Also, the IC50 is 172 nM in data set [5] and 142 nM in data set [6].
With `N[C@@H](Cc1cc(O)c(O)cc1[18F])C(=O)O` [F-18-FDOPA], the “selectivity in terms of brain distribution” value in data set [2] (setting [7]) was “no selectivity”. In addition, the “F-18 images of PD brains compared with the control group (Sham)” value in data set [2] (mice, PET) is “no difference and no specificity”.
With `Cc1ccc([C@H]2C[C@@H]3CC[C@H]([C@H]2C(=O)OCC[18F])N3C/C=C/I)cc1` [F-18-FE-PE21], the “brain intake, experimental group versus control group” value in data set [2] (setting [7]) is listed as “lower”. Further, in data set [2] (mice, PET), the “F-18 images of PD brains compared with the control group (Sham)” value is “no difference and no specificity”.

The logP is a log measure of how a compound divides between an organic and an aqueous phase. In general, IC50 refers to the concentration that gives 50% inhibition.
